Patent US20080214845A1, “ANTIBACTERIAL 6'-MODIFIED 4,5-SUBSTITUTED AMINOGLYCOSIDE ANALOGS” (priority 2005, published 2008)
Values after ≈ are worked out from the molar mass of the structure shown.

How the values were obtained:
[1] = system: S. Aureus; assay: Minimum inhibitory concentration (MIC), S. aureus; type: cell-based; conditions: range of concentration, 20-24 hours at 37° C., A595; for MIC: Staphylococcus aureus
Description: (§1) The assays are carried out in 150 μL volume in duplicate in 96-well clear flat-bottom plates. The bacterial suspension from an overnight culture growth in appropriate medium is added to a solution of test compound in 2.5% DMSO in water. Final bacterial inoculum is approximately 10^2-10^3 CFU/well. The percentage growth of the bacteria in test wells relative to that observed for a control wells containing no compound is determined by measuring absorbance at 595 nm (A595) after 20-24 hours at 37° C. The MIC is determined as a range of concentration where complete inhibition of growth is observed at the higher concentration and bacterial cells are viable at the lower concentration. Both ampicillin and tetracycline are used as antibiotic positive controls in each screening assay.

[2] = system: E. Coli.; assay: Minimum inhibitory concentration (MIC), E. coli; type: cell-based; conditions: range of concentration, 20-24 hours at 37° C., A595; for MIC: Escherichia coli
Description: as §1

[3] = system: Staphylococcus aureus (Smith strain ATCC 13709); assay: Staphylococcus aureus mouse protection assay; type: in vivo; conditions: Staph conc. 10^6 IP in 10% mucin, treatments at 1 hour and 3 hour post infection
Description: Two of the novel aminoglycoside compounds of the invention were examined for their anitbacterial activity against staphylococcus aureus. The mice were infected IP with 0.5 ml […] staphylococcus aureus in 10% mucin. There were 10 mice in each treated group with treatments at 1 hour and 3 hour post infection. The Ibis compounds (IBIS00561085 R4═R5═CH3 and IBIS00561141 R4═H, R5═(CH2)2C6H5) were used at 75 mg/kg, 37.5 mg/kg, 18.8 mg/kg, 9.4 mg/kg, 4.7 mg/kg, 2.3 mg/kg, 1.17 mg/kg and 0.5 mg/kg. Amakacin, Paromomycin and Neomycin were used as the positive controls at concentration of 2 mg/kg, 1 mg/kg and 0.5 mg/kg.

[4] = target: 18S; assay: 18S Kd by FTICR mass spectrometry; type: binding
Description: (§2) Was performed according to the published report; […]-Lowery, […].; Mohan, […]. et al. Characterization of Low Affinity Complexes Between RNA and Small Molecules Using Electrospray Ionization Mass Spectrometry. J. Am. Chem. […] Screening is performed by measuring the formation of non-covalent complexes between a single ligand or ligand mixture and the appropriate RNA target, along with suitable control structured RNA target(s) simultaneously using a 9.4 T FT-ICR mass spectrometer as detector. Full experimental details of the assay have been described in related literature ([…]-Lowery, et al. in TrAC, Trends Anal. […] The abundances were integrated from the respective ions for free RNA and the ligand-RNA complex. […] The peak ratios are measured at each concentration, then a plot of complex/free RNA versus concentration of ligand added is fitted to a second (or higher) order binding polynomial to determine the KD.

[5] = system: E. coli S30 bacterial extract (pBest Luc luciferase transcription/translation); assay: Coupled bacterial transcription/translation assay (T/T); type: biochemical; conditions: luciferase reporter, 35 minutes at 37° C., read-out: Trans/Trans IC50
Description: The DNA template, pBest Luc™ (Promega), is a plasmid containing a reporter gene for firefly luciferase fused to a strong tac promoter and ribosome binding site. Messenger RNA from 1 μg pBestLuc was transcribed and translated in E. coli S30 bacterial extract in the presence or absence of test compound. Compounds were tested in a black 96 well microtiter plate with an assay volume of […]. Each test well contained: 5 μL test compound, 13 μL S30 premix (Promega), 4 μL 10× complete amino acid mix (1 mM each), 5 μL E. coli S30 extract and 8 μL of 0.125 μg/μL pBest Luc™. The transcription/translation reaction was incubated for 35 minutes at 37° C. followed by detection of functional luciferase with the addition of 30 μL LucLite™ (Packard). Light output was quantitated on a Packard TopCount.

[6] = target: 16S; assay: Measurement of 16S Kd by FTICR mass spectrometry; type: binding
Description: as §2

## NC[C@@H]1O[C@H](O[C@H]2[C@@H](O)[C@H](O[C@@H]3[C@@H](O)[C@H](N)C[C@H](N)[C@H]3O[C@H]3O[C@H](CNCCCc4ccccc4)[C@@H](O)[C@H](O)[C@H]3N)O[C@@H]2CO)[C@H](N)[C@@H](O)[C@@H]1O [IBIS00561932]
[1]
  MIC S. Aureus: 0.31 to 0.62 µM
[2]
  MIC E. Coli.: 0.6 to 1.2 µM

## NC[C@@H]1O[C@H](O[C@H]2[C@@H](O)[C@H](O[C@@H]3[C@@H](O)[C@H](N)C[C@H](N)[C@H]3O[C@H]3O[C@H](CO)[C@@H](O)[C@H](O)[C@H]3N)O[C@@H]2CO)[C@H](N)[C@@H](O)[C@@H]1O [Paromomycin]
[3]; 0.5 mg/kg
  # Dead mice/Total mice in group: 10/10 (10% Mucin)
[3]; 1 mg/kg
  # Dead mice/Total mice in group: 10/10 (10% Mucin)
[3]; 2 mg/kg
  # Dead mice/Total mice in group: 9/10 (10% Mucin)

## NCCCCNC[C@H]1O[C@H](O[C@H]2[C@H](O[C@@H]3O[C@H](CO)[C@@H](O[C@H]4O[C@@H](CN)[C@@H](O)[C@H](O)[C@H]4N)[C@H]3O)[C@@H](O)[C@H](N)C[C@@H]2N)[C@H](N)[C@@H](O)[C@@H]1O [IBIS00561140]
[4]
  Kd: 6.02 µM
[5]
  IC50: 0.032 µM
[1]
  MIC: 10 to 20 µM (≈ 6.86 to 13.7 µg/mL)
[2]
  MIC: 2.5 to 5 µM (≈ 1.71 to 3.43 µg/mL)
[6]
  Kd: 6.27 µM

## NC[C@@H]1O[C@H](O[C@H]2[C@@H](O)[C@H](O[C@@H]3[C@@H](O)[C@H](N)C[C@H](N)[C@H]3O[C@H]3O[C@H](CN4CCOCC4)[C@@H](O)[C@H](O)[C@H]3N)O[C@@H]2CO)[C@H](N)[C@@H](O)[C@@H]1O [IBIS00561142]
[4]
  Kd: 3 µM
[5]
  IC50: 0.349 µM
[1]
  MIC: 10 to 20 µM (≈ 6.85 to 13.7 µg/mL)
[2]
  MIC: 20 to 40 µM (≈ 13.7 to 27.4 µg/mL)
[6]
  Kd: 3.64 µM

## NC[C@@H]1O[C@H](O[C@H]2[C@@H](O)[C@H](O[C@@H]3[C@@H](O)[C@H](N)C[C@H](N)[C@H]3O[C@H]3O[C@H](CNCCc4ccc(C(F)(F)F)cc4)[C@@H](O)[C@H](O)[C@H]3N)O[C@@H]2CO)[C@H](N)[C@@H](O)[C@@H]1O [IBIS00561942]
[1]
  MIC S. Aureus: 0.31 to 0.62 µM
[2]
  MIC E. Coli.: 1.25 to 2.5 µM

## NC[C@@H]1O[C@H](O[C@H]2[C@@H](O)[C@H](O[C@@H]3[C@@H](O)[C@H](N)C[C@H](N)[C@H]3O[C@H]3O[C@H](CNCCc4ccc(F)cc4)[C@@H](O)[C@H](O)[C@H]3N)O[C@@H]2CO)[C@H](N)[C@@H](O)[C@@H]1O [IBIS00561944]
[1]
  MIC S. Aureus: 0.16 to 0.31 µM
[2]
  MIC E. Coli.: 0.6 to 1.2 µM

## Neomycin
[3]; 0.5 mg/kg
  # Dead mice/Total mice in group: 7/10 (10% Mucin)
[3]; 1 mg/kg
  # Dead mice/Total mice in group: 10/10 (10% Mucin)
[3]; 2 mg/kg
  # Dead mice/Total mice in group: 4/10 (10% Mucin)

## NCC[C@H](O)C(=O)N[C@@H]1C[C@H](N)[C@@H](O[C@H]2O[C@H](CN)[C@@H](O)[C@H](O)[C@H]2O)[C@H](O)[C@H]1O[C@H]1O[C@H](CO)[C@@H](O)[C@H](N)[C@H]1O [Amikacin]
[3]; 0.5 mg/kg
  # Dead mice/Total mice in group: 8/10 (10% Mucin)
[3]; 1 mg/kg
  # Dead mice/Total mice in group: 10/10 (10% Mucin)
[3]; 2 mg/kg
  # Dead mice/Total mice in group: 8/10 (10% Mucin)

## NCC1OC(OC2C(CO)OC(OC3C(O)C(N)CC(N)C3OC3OC(CNCC(O)c4ccccc4)C(O)C(O)C3N)C2O)C(N)C(O)C1O (stereo not shown) [IBIS00561937]
[1]
  MIC S. Aureus: 0.6 to 1.2 µM
[2]
  MIC E. Coli.: 5.0 to 10.0 µM

## CNC[C@H]1O[C@H](O[C@H]2[C@H](O[C@@H]3O[C@H](CO)[C@@H](O[C@H]4O[C@@H](CN)[C@@H](O)[C@H](O)[C@H]4N)[C@H]3O)[C@@H](O)[C@H](N)C[C@@H]2N)[C@H](N)[C@@H](O)[C@@H]1O [IBIS00560186]
[4]
  Kd: 1.16 µM
[5]
  IC50: 0.159 µM
[1]
  MIC S. Aureus: 2 to 3 µM
[2]
  MIC E. Coli.: 2 to 3 µM
[6]
  Kd: 0.362 µM

## NC[C@@H]1O[C@H](O[C@H]2[C@@H](O)[C@H](O[C@@H]3[C@@H](O)[C@H](N)C[C@H](N)[C@H]3O[C@H]3O[C@H](CN4CCC5CCCCC54)[C@@H](O)[C@H](O)[C@H]3N)O[C@@H]2CO)[C@H](N)[C@@H](O)[C@@H]1O (stereo partly shown) [IBIS00561939]
[1]
  MIC: 0.31 to 0.62 µM (≈ 0.224 to 0.448 µg/mL)
[2]
  MIC: 1.25 to 2.5 µM (≈ 0.904 to 1.81 µg/mL)
